# Assay: gradient 5% acetonitrile 3 min, to 50% in 2 min, to 85% in 15 min, held 3 min, 100 µL/min
# Settings: column: Zorbax Extend-C18 2.1 x 50 mm; eluents: water / acetonitrile, 0.1% formic acid
# How it was run: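 The system's dead and dwell volumes were 40 μL and 900 μL, with a Zorbax Extend-C18 column (2.1 × 50 mm, 1.8 μm) run at 100 μL/min in water and acetonitrile containing 0.1% formic acid each. Pure standards were analyzed in mixtures of ~100 molecules by HPLC–quadrupole time-of-flight mass spectrometry in positive and negative ionization mode. Retention time was assigned from computationally picked, manually inspected adduct peaks.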
row,Structure (SMILES),RP-LC retention time
1,COc1ccc(NC(=O)CN2CCc3[nH]c4c(C)cc(F)cc4c(=O)c3C2)cc1,600 s
2,CSc1nc2cc(S(=O)(=O)N3CCCCC3)ccc2s1,1100 s
3,CCc1nc2cc(N3CCC(C(=O)NC(C)c4cccnc4)CC3)cnc2nc1CC (stereo not drawn),596 s
4,COc1ccc(NC(=O)c2cnc(N3CCN(c4ccccc4OC)CC3)nc2N)cc1,737 s
5,Cc1ccc(-c2nc(-c3cccc(-c4ccnn4C)c3)no2)cc1,1210 s
6,Cc1nc(C(=O)Nc2ccc(Cl)cc2)c(C)o1,901 s
7,CC(C)c1noc(-c2cc(=O)n(CC(=O)NCc3cccs3)c3ccccc23)n1,933 s
8,Cc1ccc(Cn2c(=O)n(CCNC(=O)C3CCOC3)c3ncccc32)cc1 (stereo not drawn),710 s
9,O=c1ccc(-c2cccc(Cl)c2)nn1CCc1nc(-c2ccccc2)no1,1030 s
10,O=C1CC(c2noc(C3CCCC3)n2)CN1c1ccccc1 (stereo not drawn),917 s
11,CCOC(=O)C1CCN(c2nc(=O)n(CC(=O)Nc3ccc(C)cc3)c3ccccc23)CC1,843 s
12,Clc1ccccc1N1CCN(c2nccn3nc(-c4ccccc4)cc23)CC1,1330 s
13,CNC(=O)c1c(C)nn(-c2ccccc2)c1-n1cccc1,761 s
14,O=C(C1CC(=O)N(c2n[nH]c3ccccc23)C1)N1CCC(c2noc3cc(F)ccc23)CC1 (stereo not drawn),766 s
15,Fc1ccccc1CNc1nnc(-c2nc(C3CC3)no2)c2ccccc12,952 s
16,CO[C@@H]1[C@H](OC(=O)/C=C/C=C/C=C/C=C/C(=O)O)CC[C@]2(CO2)[C@H]1[C@@]1(C)O[C@@H]1CC=C(C)C,954 s
17,COCCNC(=O)C(=O)Nc1ccc(Br)cc1F,839 s
18,Cc1noc(C)c1S(=O)(=O)N1CC(n2cc(C(=O)NCC3CC3)nn2)C1,757 s
19,O=C(Cn1cc(-c2ccc(F)cc2)oc1=O)NCc1ccc(N2CCCCC2)cc1,635 s
20,CCCNC(=O)C1(CCO)CCN(c2ncccn2)C1 (stereo not drawn),560 s
21,Cc1cc(C(=O)O)c2cc(F)ccc2n1,486 s
22,CN1c2cc(Cl)ccc2C(=O)NC12CCN(C(=O)NCc1ccccc1)CC2,795 s

row,Structure (SMILES),RP-LC retention time
1,COc1ccccc1-c1nnc(-c2ccc(C)c(S(=O)(=O)N3CCCC3)c2)o1,966 s
2,Cc1cc(C)cc(-c2nnc(Cc3nc(-c4cccc(Br)c4)no3)o2)c1,1240 s
3,O=C(Nc1cccc(Cl)c1)C1CCN(S(=O)(=O)c2cc(C(=O)N3CCCC3)cs2)CC1,884 s
4,Cc1nn(C)c(C)c1S(=O)(=O)N1[C@H]2CC[C@@H]1c1cnc(-c3ccc(F)cc3)nc1C2,924 s
5,O=C(Nc1cc(-c2cccnc2)no1)c1ccc(F)cc1,729 s
6,O=C(NC1CCCC1)c1cc2n(n1)CCCN(Cc1ccc(Cl)cc1)C2=O,890 s
7,COc1ccc(NC(=O)c2cc3c(=O)oc4ccccc4c3n2C)cc1OC,850 s
8,Cc1noc(C)c1S(=O)(=O)N1CCC(c2noc(-c3ccccn3)n2)C1 (stereo not drawn),794 s
9,CCc1ccc(N2CC(c3noc(-c4ccc(OC)c(OC)c4)n3)CC2=O)cc1 (stereo not drawn),925 s
10,O=S(=O)(Nc1ccc(F)cc1)c1cccnc1Nc1ccc(Cl)cc1,1120 s
11,Cc1ccc(-c2cc(C(=O)N(C)Cc3ccccc3)c(C)[nH]2)cc1C,1040 s
12,NC(=O)c1ccccc1NC(=O)C1CCN(C(=O)c2ccccc2F)CC1,669 s
13,CCCOc1nccnc1N1CCC(NC(=O)c2ccoc2)C1 (stereo not drawn),585 s
14,COc1nn(C)cc1C(=O)N1CCC(C(=O)Nc2ccc(-n3cnnn3)cc2)CC1,600 s
15,CCN(CC)S(=O)(=O)c1ccc2c(c1)CC(C(=O)NCCc1ccc(C)cc1)N2C(C)=O (stereo not drawn),842 s
16,COc1ccc(CCN2CC(=O)N3Cc4[nH]c5ccccc5c4C[C@H]3C2=O)cc1OC,761 s
17,Cc1cc(=O)oc2c3c(cc(OCC(=O)N[C@@H](C(=O)O)C(C)C)c12)OC(C)(C)CC3,833 s
18,CS(=O)(=O)N1CCC(OC2CCN(C(=O)Nc3ccccc3Cl)CC2)CC1,785 s
19,OCCNCc1ccc(-c2cccc(C(F)(F)F)c2)o1,649 s
20,Cc1ccc(C)c(N2CCN(C(=O)c3ccc(Cn4cncn4)cc3)CC2)c1,860 s
21,COCCNC(=O)C1CCCN(C(=O)Nc2ccc(NC(=O)Nc3ccccc3)cc2)C1 (stereo not drawn),676 s
22,COc1cccc(-c2nc(C3CCN(S(=O)(=O)c4ccc(C)c(F)c4)CC3)no2)c1,1170 s

row,Structure (SMILES),RP-LC retention time
1,COC(=O)c1ncn2c1C(=O)N(Cc1ccccc1)C(C)(C(=O)NCc1ccccc1)C2 (stereo not drawn),715 s
2,COc1ccc(C)cc1NC1=NS(=O)(=O)c2ccccc21,852 s
3,Cc1cnc(C(=O)NC2C[C@H]3CC[C@@H](C2)N3C(=O)CCC2CCCC2)cn1 (stereo partly drawn),762 s
4,COc1ccc(-c2cc(C)no2)cc1S(=O)(=O)N1CCN(c2ccccn2)CC1,651 s
5,CCCN1CCO[C@@H]2c3cc(O)ccc3OC[C@H]21,645 s
6,CCCNc1cc(C)nc2nc(-c3ccc(C(C)(C)C)cc3)nn12,1000 s
7,CCOC(=O)c1[nH]c(C)c(C(=O)C(C)N(CCOC)C(=O)c2ccccc2Cl)c1C (stereo not drawn),820 s
8,CC(C)Oc1ccc(CN2CC(N(Cc3ccncc3)S(C)(=O)=O)C2)cc1,571 s
9,Clc1nc(NCCc2ccccc2)c2cn[nH]c2n1,827 s
10,Cc1cc(-c2nnc(-c3ccccc3)o2)c(C)n1CC(=O)N1CCN(C2CCCCC2)CC1,666 s
11,CCCNC(=O)NCCC1CCN(S(=O)(=O)c2ccc(C)cc2)CC1,742 s
12,Cc1cc(-c2ccccc2)nc(Nc2nc(-c3ccccc3)c(CC(=O)O)s2)n1,922 s
13,CC(C)c1ccc(NC(=O)Cn2nc(N3CCSCC3)c3ccccc3c2=O)cc1,1070 s
14,COc1ccc(OC)c(NC(=O)c2cc(C)n(CCN(C)C)c2C)c1,636 s
15,CCCNC(=O)C(=O)NCC(c1ccc2c(c1)OCO2)N1CCOCC1 (stereo not drawn),595 s
16,O=c1ccc(N2CCC(NS(=O)(=O)c3ccc(Cl)s3)CC2)nn1CC1CC1,875 s
17,COc1ccc(-c2noc(-c3nc(-c4cc(OC)c(OC)c(OC)c4)no3)n2)cc1,1080 s
18,COCCCNC(=O)c1ccc(N2CCCN(Cc3ccccc3C)C2=O)cc1,769 s
19,COc1ccc(NC(=O)Cn2nc3c(Oc4ccccc4Cl)nccn3c2=O)cc1,859 s
20,COc1ccc(N2CCN(S(=O)(=O)c3cc(-c4nc(C(C)C)cs4)sc3C)CC2)cc1,1340 s
21,COc1ccc(NC(=O)Nc2cccc(-c3cn4cccnc4n3)c2)cc1,687 s
22,COc1ccc(CN2CC3(CCN(S(=O)(=O)c4ccc(F)cc4)CC3)C2=O)cc1,904 s

row,Structure (SMILES),RP-LC retention time
1,CCOC(=O)CNC(=O)NC1CCN(C2=NS(=O)(=O)C(c3ccc(C)cc3)=C2C)CC1,743 s
2,CCc1nc2c(c(=O)n1CC(=O)NCc1ccc(C)c(C)c1)CN(Cc1ccccc1)CC2,694 s
3,CC(C)NC(=O)C1=CCN(C(=O)c2cccc(F)c2)CC1,712 s
4,CC1Cc2cc(-c3cc(CC(=O)N4CCN(c5ccccc5F)CC4)no3)ccc2O1 (stereo not drawn),975 s
5,CCn1nccc1-c1cccc(-c2noc(-c3ccc(CS(=O)(=O)c4ccccc4)cc3)n2)c1,1160 s
6,CC(C)OCCCNC(=O)c1ccc2c(c1)N(C)C(=O)C1CCCCN21 (stereo not drawn),770 s
7,COc1cccc(-c2nc(-c3ccc(S(=O)(=O)N4CCCCC4)cc3)no2)c1,1270 s
8,Cc1nc(C)c(-c2ccc(=O)n(CCNC(=O)Cn3cnc4ccccc43)n2)s1,552 s
9,CCOc1ccccc1NC(=O)Cn1nc2c(Oc3ccccc3C)nccn2c1=O,935 s
10,Cc1ccnc(NC(=O)C2CC(=O)N(c3n[nH]c4ccccc34)C2)c1 (stereo not drawn),592 s
11,COc1ccc(S(=O)(=O)N2CCCC(C(=O)NC(C)C)C2)cc1OC (stereo not drawn),720 s
12,Cc1ccc(CNC(=O)Cn2nc(N3CCCC3)c3ccccc3c2=O)cc1,908 s
13,Cc1ccccc1CNC(=O)CCc1conc1-c1ccc(F)cc1,922 s
14,Cc1ccc(N2N=C(C(=O)N3CCN(CC(C)C)CC3)S(=O)(=O)c3cccnc32)cc1,674 s
15,CCOCCCNC(=O)c1c2c(cn(-c3ccccc3)c1=O)C(=O)CC(C)(C)C2,591 s
16,O=C(Cn1nc(N2CCCC2)c2ccccc2c1=O)Nc1ccc(F)c(F)c1,950 s
17,Cc1cccc(NC(=O)N2CCc3nc(-c4ccc(Cl)cc4)ncc3C2)c1,1080 s
18,COCc1cc2nn(CC(=O)Nc3c(C)cccc3C)c(=O)n2c(-c2ccccc2)n1,930 s
19,Cc1ccc2c(Nc3ccc(Cl)cc3)c(-c3nc(C)no3)cnc2n1,785 s
20,O=C(CCc1ccc2cc[nH]c2c1)NCc1cccs1,806 s
21,C[C@H]1CN(C(=O)c2ccc3ccccc3n2)C[C@@H]1c1nc(-c2ccncc2)no1,830 s
22,O=C(NCc1ccccc1)C1CCN(S(=O)(=O)c2ccc3[nH]c(=O)ccc3c2)CC1,683 s

# From the METLIN SMRT retention time set (Domingo-Almenara et al. 2019)
